Laboratory results: patent US7226892B2, “Herbicidal composition and use” (Durga Technologies ApS, priority 2003, dated 2007)

Tests used:
[1] = respiratory tract/lungs, eyes, skin; cited from earlier work
[2] = tested on: mixed vegetation of grasses and weeds; assay: Spraying of glycine solution onto mixed vegetation; format: in vivo; conditions: glycine alone, summary statement
Description: A common squirt bottle delivering a fine spray was used for spraying the weeds.
A solution of 90 g of glycine+15 g of the surfactant “Witconol® SN 90” in 1 L of water was sprayed onto a mixed vegetation of grasses and weeds until the spray liquid dripped from the leaves, corresponding to 0.1 L/m^2.

O=C(O)CC(O)(CC(=O)O)C(=O)O [citric acid, Citric Acid Monohydrate, reference compound]
risk identification / classification as irritant [1]: Irritates respiratory tract/lungs, irritates eyes, skin irritating

NCC(=O)O [glycine, 2-aminoethanoic acid]
herbicidal activity of glycine per se [2]: no noticeable herbicidal activity | risk identification / classification as irritant [1]: not classified as an irritant
